Laboratory results reported in US9926369B2, “Methods for treating hepatocellular cancer by administering an anti-Ang-2 antibody” (Regeneron Pharmaceuticals, Inc., priority 2009, dated 2018).
pKd: −log10 of the molar value.

How the values were obtained:
Dimeric Human Ang-2FD = molecular target: T1, Dimeric Human Ang-2FD (Homo sapiens, UniProt O15123); assay: Surface plasmon resonance binding to dimeric human Ang-2FD conjugated to human IgG1; conditions: SPR, room temperature
T1 sequence (O15123 282-496): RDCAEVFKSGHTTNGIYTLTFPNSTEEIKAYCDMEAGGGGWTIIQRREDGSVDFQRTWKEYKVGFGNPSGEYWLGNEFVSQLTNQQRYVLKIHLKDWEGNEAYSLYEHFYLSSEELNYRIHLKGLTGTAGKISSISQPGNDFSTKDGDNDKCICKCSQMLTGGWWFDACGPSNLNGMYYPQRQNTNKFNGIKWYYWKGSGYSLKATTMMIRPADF
Method: (§1) Equilibrium dissociation constants (KD values) for the binding of selected purified Ang-2 antibodies to dimeric fibrinogen-like domain of human (SEQ ID NO: 519), mouse (Mus musculus; SEQ ID NO: 520) and monkey (Macca fascicularis; SEQ ID NO: 521) Ang-2 (Ang-2FD) conjugated to human IgG1 (SEQ ID NO:528) were determined by surface kinetics using a real-time biosensor surface plasmon resonance assay. Antibody was captured on a goat anti-mouse IgG polyclonal antibody surface, a goat anti-human κ polyclonal antibody (Southern Biotech, Birmingham, Ala.) surface or a goat anti-human IgG polyclonal antibody (Jackson Immuno Research Lab, West Grove, Pa.) surface created through direct amine coupling to a BIACORE™ CM5 sensor chip to form a captured antibody surface. Varying concentrations (ranging from 50 nM to 6.25 nM) of protein were injected at 100 μl/min over captured antibody surface for 90 seconds. Antigen-antibody binding and dissociation were monitored in real time at room temperature. Kinetic analysis was performed to calculate KD and half-life of antigen/antibody complex dissociation.
The above experiment was repeated using selected purified anti-Ang-2 antibodies cloned onto human IgG1.

[1] = molecular target: Dimeric Monkey Ang-2FD-hFc; assay: Cross-species SPR binding at 25° C. or 37° C., monkey Ang-2FD-hFc
Dimeric Monkey Ang-2FD-hFc, sequence (as listed by the source): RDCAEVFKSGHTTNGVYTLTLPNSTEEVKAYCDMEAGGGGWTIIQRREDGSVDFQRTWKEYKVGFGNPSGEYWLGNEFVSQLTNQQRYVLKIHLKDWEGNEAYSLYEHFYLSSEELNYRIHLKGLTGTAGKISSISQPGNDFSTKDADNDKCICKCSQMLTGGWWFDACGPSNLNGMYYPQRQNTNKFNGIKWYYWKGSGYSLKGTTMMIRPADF
Method: Additional binding experiments were conducted using selected anti-Ang-2 antibodies at two different temperatures to further assess cross-species affinity. Each selected antibody or control construct was captured at a flow rate of 40 μL/min for 1 minute on a goat anti-human kappa polyclonal antibody surface created through direct chemical coupling to a BIACORE™ chip to form a captured antibody surface. Human, monkey and mouse Ang-2FD-Fc at a concentration of 25 nM or 0.78 nM was injected over the captured antibody surface at a flowrate of 60 μL/min for 3 minutes, and antigen-antibody dissociation was monitored in real time for 20 minutes at either 25° C. or 37° C.

hBA2 = hBA2 (Homo sapiens, UniProt O15123); assay: SPR binding to human bow-Ang-2 tetrameric construct (hBA2)
hBA2, sequence (O15123 with tags, fused parts or gaps): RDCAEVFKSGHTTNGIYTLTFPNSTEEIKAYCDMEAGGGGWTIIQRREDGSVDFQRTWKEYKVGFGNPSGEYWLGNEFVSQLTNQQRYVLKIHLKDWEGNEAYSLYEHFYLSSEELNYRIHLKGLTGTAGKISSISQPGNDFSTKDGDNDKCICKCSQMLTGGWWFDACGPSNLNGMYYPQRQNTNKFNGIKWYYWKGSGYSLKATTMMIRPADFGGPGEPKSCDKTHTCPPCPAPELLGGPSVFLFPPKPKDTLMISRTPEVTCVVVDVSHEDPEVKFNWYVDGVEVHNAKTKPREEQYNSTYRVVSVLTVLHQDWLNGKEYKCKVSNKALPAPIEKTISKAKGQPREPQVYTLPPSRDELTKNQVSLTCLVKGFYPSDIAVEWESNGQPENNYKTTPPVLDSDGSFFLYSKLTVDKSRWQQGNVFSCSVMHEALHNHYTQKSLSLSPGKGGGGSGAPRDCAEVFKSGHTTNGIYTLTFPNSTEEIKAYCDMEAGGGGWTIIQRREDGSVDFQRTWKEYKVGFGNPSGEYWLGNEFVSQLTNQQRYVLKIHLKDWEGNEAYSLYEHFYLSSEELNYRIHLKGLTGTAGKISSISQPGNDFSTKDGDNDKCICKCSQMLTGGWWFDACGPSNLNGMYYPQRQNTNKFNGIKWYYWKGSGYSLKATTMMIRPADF

Monomeric hAng-2FD = molecular target: T2, Monomeric hAng-2FD (Homo sapiens, UniProt O15123); assay: SPR binding to monomeric hAng-2FD (Table 8)
T2 sequence (O15123 282-496 limits assumed): T1 sequence (O15123 282-496)
Method: as §1
In yet another experiment, KD values for selected purified antibodies that bind to wild-type human Ang-2 (hAng-2-WT; SEQ ID NO: 518) and the fibrinogen-like domain of human Ang2 (hAng-2FD) were determined (as described above).

[2] = tested on: PC3 (Human Prostate Cancer Cell Line) tumors; assay: PC3 mouse tumor model; format: in vivo, NCr nude mice
Method: Briefly, 5×10^6 PC3 cells in 100 μl of growth factor-reduced Matrigel (BD Biosciences) were injected subcutaneously into the flanks of 6-8 week old male NCr nude mice (Taconic, Hudson, N.Y.). After tumor volumes reached an average of about 200 mm^3, mice were randomized into groups for treatment. […] Tumor volumes were measured twice per week over the course of the experiment and tumor weights were measured upon excision of tumors at the conclusion of the experiment. Averages (mean+/−standard deviation) of tumor weight and growth were calculated for each treatment group. Percent decrease of tumor weight and growth were calculated from comparison to Fc protein measurements.

[3] = tested on: retinal superficial vasculature; assay: Retinal vascularization in wild-type mice; format: in vivo; conditions: 12.5 mg/kg subcutaneous at P2, retina at P5
Method: In one set of experiments wild-type mice were used. In another set, mice expressing a human Ang-2 in place of the wild-type mouse Ang-2 (designated “hu-Ang-2 mice”) were used. The mice at two days of age (P2) were injected subcutaneously with either control Fc or with selected anti-Ang-2 antibodies at a dose of 12.5 mg/kg. Three days later (at P5), pups were euthanized, and eyeballs were enucleated and fixed in 4% PFA for 30 minutes. Retinas were dissected, stained with Griffonia simplicifolia lectin-1 for 3 hours or overnight at 4° C. to visualize the vasculature, and flat-mounted on microscope slides. Images were taken using a Nikon Eclipse 80i microscope camera and analyzed using Adobe Photoshop CS3, Fovea 4.0, and Scion 1.63 software.
Areas of the retina covered with superficial vasculature were measured and used as a readout of antibody activity. The reduction in the size of the vascular areas in mice treated with antibody compared to Fc-treated controls is presented in Table 34. The percent reduction in vascular area reflects the anti-angiogenic potency of the antibody. (N/D=not determined)

hAng-2FD-mFc S-417-I = molecular target: T3, hAng-2FD-mFc S-417-I (Homo sapiens, UniProt O15123, S417I); assay: Ang-2FD-mFc point mutant binding experiment (SPR), S-417-I; conditions: S-417-I mutant captured; antibody/peptibody at 100 nM; 25° C.
T3 construct: made in house
T3 sequence (O15123 with tags, fused parts or gaps S417I): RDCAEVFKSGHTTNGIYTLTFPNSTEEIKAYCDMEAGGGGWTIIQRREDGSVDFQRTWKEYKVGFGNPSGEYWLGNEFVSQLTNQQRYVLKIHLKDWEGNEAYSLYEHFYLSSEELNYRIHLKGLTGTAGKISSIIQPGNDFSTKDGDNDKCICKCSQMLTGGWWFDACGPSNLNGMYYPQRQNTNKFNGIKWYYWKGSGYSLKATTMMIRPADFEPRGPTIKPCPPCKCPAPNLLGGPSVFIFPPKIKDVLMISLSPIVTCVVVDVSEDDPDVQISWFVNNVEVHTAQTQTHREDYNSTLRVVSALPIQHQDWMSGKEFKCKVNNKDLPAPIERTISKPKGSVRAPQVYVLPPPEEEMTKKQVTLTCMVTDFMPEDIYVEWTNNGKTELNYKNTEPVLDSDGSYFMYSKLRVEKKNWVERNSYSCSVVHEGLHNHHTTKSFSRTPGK
Source text: To further characterize binding between hAng2 and anti-hAng2 mAbs of the invention, seven variant hAng2-FD-mFc proteins were generated, each containing a single point mutation. Amino acids selected for mutation were based on the difference in sequence between hAng-2 and hAng-1 in the region that interacts with hTie-2 (FIG. 1). In particular, amino acids within the fibrinogen-like domain (FD) of Ang-2 which are believed to interact with Tie-2 based on crystal structure analysis, but which differ from the corresponding amino acid in Ang-1, were individually mutated to the corresponding hAng-1 residue. The results of this example indicate the amino acid residues of hAng-2 with which the Ang-2 preferential binding antibodies interact.
In this experiment, each of the seven hAng-2FD-mFc mutant proteins were captured (˜147-283 RU) on an anti-mouse-Fc surface created through direct chemical coupling to a BIACORE™ chip. Then each Ang-2 antibody (or peptibody, as the case may be) at 100 nM was injected over the captured mFc-tagged hAng-2FD protein surface at a flowrate of 50 μl/min for 180 sec, and the dissociation of variant hAng2-FD-mFc and antibody was monitored in real time for 20 min at 25° C.

[4] = PC3, 2.5 mg/kg subcutaneous twice per week
[5] = PC3, 10 mg/kg intraperitoneal twice per week, vs Fc protein
[6] = PC3, 12.5 mg/kg subcutaneous twice per week
[7] = PC3, 25 mg/kg subcutaneous twice per week

H1H685P: human anti-Ang-2 antibody, HCVR/LCVR SEQ ID NOs 18/20; also referred to as mAb1 [Antibody H1H685P]
pKd (Dimeric Human Ang-2FD): 10.15
pKd ([1]; 25° C.): 10.66
pKd ([1]; 37° C.): 10.14
pKd (hBA2): 10.92
pKd (Monomeric hAng-2FD): 9.24
% Decrease in Tumor Growth [2, 4]: 70%
Avg Tumor Growth [2, 4]: 308 ± 274 mm^3
Avg Tumor Weight ([2]; PC3, 10 mg/kg intraperitoneal twice per week, approximately three weeks, mean ± SD): 0.44 ± 0.12 g
Avg Tumor Growth ([2]; PC3, 10 mg/kg intraperitoneal twice per week, mean ± SD): 305 ± 143 mm^3
% Decrease in Tumor Growth [2, 5]: 40%
% Decrease in Tumor Weight [2, 5]: 33%
% Decrease in Tumor Growth [2, 6]: 47%
Avg Tumor Growth [2, 6]: 550 ± 150 mm^3
% Decrease in Tumor Growth [2, 7]: 60%
Avg Tumor Growth [2, 7]: 413 ± 208 mm^3
Anti-tumor activity in the PC3 mouse tumor model (in words) ([2]; as compared to the control constructs): especially marked anti-tumor activity
% Reduction in Vascular Area Relative to Fc Control, Wild-Type Mice [3]: 39.7%
pKd (hAng-2FD-mFc S-417-I): 10.52
RU (hAng-2FD-mFc S-417-I): 127.65 RU
